Assay results published in patent publication US20050209278A1, “Piperidinyl- and piperazinyl-sulfonylmethyl hydroxamic acids and their use as protease inhibitors” (priority 2002, published 2005).
Counter-ions that a name gives are not always drawn.

Target: T1, MMP-2 (Homo sapiens, UniProt P08253)
T1 construct: made in house; host or cells: MMP-2-transfected p2AHT2 cells
T1 sequence (P08253 110-660): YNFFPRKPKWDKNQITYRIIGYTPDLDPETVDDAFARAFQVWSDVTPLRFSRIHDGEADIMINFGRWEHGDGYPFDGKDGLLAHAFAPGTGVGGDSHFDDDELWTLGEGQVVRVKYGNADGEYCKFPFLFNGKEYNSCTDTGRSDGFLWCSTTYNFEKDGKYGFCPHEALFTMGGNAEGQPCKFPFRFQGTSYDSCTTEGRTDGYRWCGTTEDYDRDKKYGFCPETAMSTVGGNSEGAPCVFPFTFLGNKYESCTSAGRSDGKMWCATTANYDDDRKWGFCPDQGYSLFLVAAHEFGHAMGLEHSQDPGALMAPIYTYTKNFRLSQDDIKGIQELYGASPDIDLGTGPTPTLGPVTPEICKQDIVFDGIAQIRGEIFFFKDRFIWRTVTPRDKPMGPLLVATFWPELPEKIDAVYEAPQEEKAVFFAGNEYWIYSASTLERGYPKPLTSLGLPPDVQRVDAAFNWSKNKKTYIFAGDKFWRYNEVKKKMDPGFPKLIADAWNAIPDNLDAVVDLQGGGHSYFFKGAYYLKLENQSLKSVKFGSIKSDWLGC
Test: In vitro MMP inhibition, IC50 determination (fluorogenic substrate I)
Format: biochemical
Conditions: values in parenthesis; 4 μM substrate I; room temperature
Procedure: Several hydroxamic acids and salts thereof were analyzed in in vitro assays to determine their ability to inhibit the MMP cleavage of peptide substrates. […] and IC50 constants were calculated from the assayed hydroxamic acid-MMP interactions.
Human recombinant MMP-1, MMP-2, MMP-9, MMP-13, and MMP-14 were used in this assay. All enzymes were prepared in Assignee's laboratories following usual laboratory procedures. Protocols for the preparation and use of these enzymes are available in the scientific literature. See, e.g., Enzyme Nomenclature (Academic Press, San Diego, Calif., 1992) (and the citations therein). See also, Freije et al., “Molecular cloning and expression of collagenase-3, a novel human matrix metalloproteinase produced by breast carcinomas,” J Biol. Chem., 269(24), 16766-16773 (1994).
The MMP-2 proenzyme was purified by gelatin Sepharose chromatography from MMP-2-transfected p2AHT2 cells provided by Dr. Gregory Goldberg of Washington University (St. Louis, Mo.).
All MMPs were activated using 4-aminophenylmercuric acetate (“APMA”, Sigma Chemical, St. Louis, Mo.) or trypsin. MMP-9 also was activated using human recombinant MMP-3 (purified in Assignee's laboratory following standard cloning and purification techniques).
Two fluorogenic, methoxycoumarin-containing polypeptide substrates were used in the MMP inhibition assays: [drawing 427] Here, “Dpa” is 3-(2,4-dinitrophenyl)-L-2,3-diaminopropionyl group, and “MCA” is 7-methoxycoumarin-4-yl acetyl. Substrate (I) was purchased from Baychem (Redwood City, Calif.), and substrate II was prepared Assignee's laboratory. Substrate I was used in the IC50 determination assays, while substrate II was used in the Ki determination assays. In the absence of MMP inhibitory activity, either substrate is cleaved at the Gly-Leu peptide bond. This cleavage separates the highly fluorogenic peptide from the 2,4-dinitrophenyl quencher, thus resulting in increase of fluorescent intensity.
The stock solutions of the assayed hydroxamic acids (or salts thereof) were prepared in 1% dimethyl sulfoxide (DMSO). These stock solutions were diluted in Buffer A (100 mM Tris-HCl, 100 mM NaCl, 10 mM CaCl2, 0.05% polyoxyethylene 23 lauryl ether, pH 7.5) to obtain solutions with different hydroxamic acid concentrations, i.e., assay solutions with different concentrations of the assayed MMP inhibitory compound. The experiment controls contained the same amount of Buffer A/DMSO as the assayed sample, but contained no hydroxamic acid (or salt thereof).
The assays from which the IC50 determinations were made were performed as follows. The MMPs were activated with either trypsin or APMA (4-aminophenylmercuric acetate, Sigma Chemical, St. Louis, Mo.). The assayed hydroxamic acid samples were incubated in Microfluor™ White Plates (Dynatech, Chantilly, Va.) and analyzed on a Perkin Elmer L550 plate reader (Norwalk, Conn.). The excitation wavelength was 328 nm, and the emission wavelength—415 nm. All samples (assayed hydroxamic acids and controls) were incubated in separate plates at room temperature in the presence of 4 μM of MMP substrate (I). As stated in the previous paragraph, samples containing varying concentrations of the same assayed hydroxamic acid were prepared. Inhibition was measured as a reduction in fluorescent intensity as a function of MMP inhibitor concentration.
The above protocols were used to determine IC50 constants and Ki values for the compounds in Examples 1-27 above. All values in Table 2 are given in nM units. The IC50 measurements are in parenthesis.

IC50 | SMILES
< 0.1 nM | CCCCc1ccc(N2CCN(S(=O)(=O)C3(C(=O)NO)CCN(CCOC)CC3)CC2)cc1 [Example 5, 4-{[4-(4-butylphenyl)piperazin-1-yl]sulfonyl}-N-hydroxy-1-(2-methoxyethyl)piperidine-4-carboxamide Dihydrochloride]
0.1 nM | CCCCCc1ccc(C2CCN(S(=O)(=O)C3(C(=O)NO)CCN(CCOC)CC3)CC2)cc1 [Example 15, N-hydroxy-1-(2-methoxyethyl)-4-{[4-(4-pentylpheyl)piperidin-1-yl]sulfonyl}piperidine-4-carboxamide Hydrochloride]
